Consider 29 molecules from US20120219613A1 (priority 2009, published 2012).

Values joined by “and” are separate entries in the source; they are usually repeats but may differ in a detail not shown here. Equal entries are not always repeated. Where two headings read alike, the source gives them in different places.

As a reminder, the IC50 is the midpoint of a concentration-inhibition curve.

One experiment deals with NiV-pVSV. Nature of the experiment: microbe, parasite or virus in culture. The class given is cell-based, Nipah virus envelope pseudotyped onto VSV.
The test system of a further experiment is enveloped viruses. Conditions: cited from earlier work.
Experiment [1] relates to enveloped viruses, such as influenza, HIV-1 and TBEV. To be noted: cited from earlier work.
The mark [2] stands for this setting: Vesicular stomatitis virus, Vero.

Take `CCCN1C(=O)/C(=C/c2ccc(-c3ccccc3)o2)SC1=S` [LJ-003, (Z)-3-Propyl-5-(5-phenyl-2-furyl)methylene-4-oxothiazolidine-2-thione]: the IC50 turned out to be 950 nM in the experiment with NiV-pVSV and 900 nM in the experiment with NiV-pVSV (setting [2]). As to `CN1C(=O)/C(=C/c2ccc(-c3ccccc3)o2)SC1=S` [LJ-005, (Z)-3-Methyl-5-(5-phenyl-2-furyl)methylene-4-oxothiazolidine-2-thione], the IC50 with NiV-pVSV came to 1220 nM; with NiV-pVSV (setting [2]), 1500 nM. In the same order, the values of `CCN1C(=O)/C(=C/c2ccc(-c3cccc(F)c3)o2)SC1=S` [LJ-007, (Z)-3-Ethyl-5-[5-(3-fluorophenyl)-2-furyl]methylene-4-oxothiazolidine-2-thione] are 1450 nM and 2500 nM. In the same order, the values of `CCN1C(=O)/C(=C/c2ccc(-c3ccccc3OC)o2)SC1=S` [LJ-010, (Z)-3-Ethyl-5-[5-(2-methoxyphenyl)-2-furyl]methylene-4-oxothiazolidine-2-thione] are 400 nM and 800 nM. The corresponding values for `CCN1C(=O)/C(=C/c2ccc(-c3cccc(OC)c3)o2)SC1=S` [LJ-011, (Z)-3-Ethyl-5-[5-(3-methoxyphenyl)-2-furyl]methylene-4-oxothiazolidine-2-thione] are 1160 nM and 1500 nM. Consider `CCN1C(=O)/C(=C/c2ccc(C)o2)SC1=S` [LJ-013, (Z)-3-ethyl-5-((5-methylfuran-2-yl)methylene)-2-thioxothiazolidin-4-one], for which, in the experiment with NiV-pVSV, the “IC50 (μM)” value is “Inactive”. As for `CCN1C(=O)/C(=C/c2ccco2)SC1=S` [LJ-014, (Z)-3-ethyl-5-(furan-2-ylmethylene)-2-thioxothiazolidin-4-one], the “IC50 (μM)” value in the experiment on NiV-pVSV is “Inactive”. Regarding `CCN1C(=O)/C(=C/c2ccc(-c3ccccc3[N+](=O)[O-])o2)SC1=S` [LJ-015, (Z)-3-ethyl-5-((5-(2-nitrophenyl)furan-2-yl)methylene)-2-thioxothiazolidin-4-one], the IC50 came out at 1030 nM in the experiment on NiV-pVSV and 1300 nM in the experiment on NiV-pVSV (setting [2]). With `CCN1C(=O)/C(=C/c2ccc(-c3ccccc3O)o2)SC1=S` [LJ-016, (Z)-3-Ethyl-5-((5-(2-hydroxyphenyl)furan-2-yl)methylene)-2-thioxothiazolidin-4-one], the IC50 in the experiment on NiV-pVSV came out at 2350 nM; in the experiment on NiV-pVSV (setting [2]), 2200 nM. Further, in the experiment on NiV-pVSV, the “antiviral activity in SAR discussion” value is “tolerated but led to generally lower activity”. Turning to `CCN1C(=O)/C(=C/c2ccc(-c3ccccc3N)o2)SC1=S` [LJ-017, (Z)-5-((5-(2-Aminophenyl)furan-2-yl)methylene)-3-ethyl-2-thioxothiazolidin-4-one], in the experiment with NiV-pVSV, the midpoint of inhibition, the IC50, lay at 1960 nM and the “antiviral activity in SAR discussion” value is “tolerated but led to generally lower activity”. Also, in the experiment on NiV-pVSV (setting [2]), half-maximal inhibition (IC50) required 3400 nM. With `CCN1C(=O)/C(=C/c2ccc(-c3ccccc3)s2)SC1=S` [LJ-018, (Z)-3-ethyl-5-((5-phenylthiophen-2-yl)methylene)-2-thioxothiazolidin-4-one], the IC50 amounted to 2650 nM in the experiment with NiV-pVSV and 4100 nM in the experiment with NiV-pVSV (setting [2]). The “antiviral activity in SAR discussion” value in the experiment with NiV-pVSV is listed as “retained activity, albeit at slightly reduced levels”. With `CCN1C(=O)/C(=C/c2cccc(-c3ccccc3)c2)SC1=S` [LJ-019, (Z)-5-(Biphenyl-3-ylmethylene)-3-ethyl-2-thioxothiazolidin-4-one], in the experiment on NiV-pVSV, the “IC50 (μM)” value was “Inactive” and the “antiviral activity in SAR discussion” value was “inactive”.

As for `CCN1C(=O)/C(=C/c2ccc(-c3ccccc3[N+]#N)o2)SC1=S.F[B-](F)(F)F` [LJ-020, (Z)-3-Ethyl-5-[5-(2-diazoniophenyl)-2-furyl]methylene-4-oxothiazolidine-2-thione tetrafluoroborate], in the experiment on NiV-pVSV, the “antiviral activity in SAR discussion” value was “tolerated but led to generally lower activity”.

On to `CCN1C(=O)/C(=C/c2cnc(-c3ccccc3)o2)SC1=S` [LJ-023, (Z)-3-Ethyl-5-((2-phenyloxazol-5-yl)methylene)-2-thioxothiazolidin-4-one], for which the IC50 with NiV-pVSV was 2400 nM; in the experiment on NiV-pVSV (setting [2]) it was 2500 nM. The “antiviral activity in SAR discussion” value in the experiment on NiV-pVSV is recorded as “retained activity, albeit at slightly reduced levels”. Regarding `O=C1NC2CSC(CCCCC(=O)OCCCN3C(=O)/C(=C/c4ccc(-c5ccccc5)o4)SC3=S)C2N1` (stereo not drawn) [LJ-024], the “antiviral activity in SAR discussion” value with NiV-pVSV was “retained good activity”. In the experiment with NiV-pVSV (read-out: IC50), the IC50 is 1900 nM and 1770 nM.

Take `C=CCN1C(=O)S/C(=C\c2ccc(-c3ccccc3)o2)C1=O` [LJ-025, (Z)-3-Allyl-5-((5-phenylfuran-2-yl)methylene)thiazolidine-2,4-dione]: the “virion membrane morphology by EM” value in the experiment with pVSV particles is listed as “not”. In the experiment on NiV-pVSV, the “IC50 (μM)” value is listed as “Inactive”; the “antiviral activity in SAR discussion” value was “completely inactive both in vitro and in vivo”.

With `C=CCN1C(=S)S/C(=C\c2ccc(-c3ccccc3)o2)C1=S` [LJ-027], the IC50 in the experiment with NiV-pVSV (read-out: IC50) amounted to 900 nM. Same read-out and setting: in the case of `CCN1C(=S)S/C(=C\c2ccc(-c3ccccc3[N+](=O)[O-])o2)C1=S` [LJ-028] it was 2010 nM. In the experiment on NiV-pVSV (setting [2]), `C=CCN1C(=O)S/C(=C\c2ccc(-c3ccccc3)o2)C1=S` [LJ-029, (Z)-3-allyl-5-(5-phenyl-2-furyl)methylene-2-oxothiazolidine-4-thione] yielded an IC50 of 4320 nM.

In the experiment with NiV-pVSV (setting [2]), `CCN1C(=O)S/C(=C\c2ccc(-c3ccccc3[N+](=O)[O-])o2)C1=S` [LJ-030, (Z)-3-ethyl-5-((5-(2-nitrophenyl)furan-2-yl)methylene)-2-oxothiazolidin-4-thione] registered an IC50 of 490 nM. The same measure, in the same setting: in the case of `O=C1NC(=S)S/C1=C\c1ccc(-c2ccccc2)o1` [LJ-031, (Z)-5-(5-phenyl-2-furyl)methylene-4-oxothiazolidine-2-thione] it was 1040 nM; in that of `C#CCN1C(=O)/C(=C/c2ccc(-c3ccccc3)o2)SC1=S` [LJ-032, (Z)-3-(2-propynyl)-5-(5-phenyl-2-furyl)methylene-4-oxothiazolidine-2-thione], 1030 nM.

For the molecule `C=CCN1C(=O)C(Cc2ccc(-c3ccccc3)o2)SC1=S` (stereo not drawn) [LJ-033, 3-Allyl-5-((5-phenylfuran-2-yl)methyl)-4-oxothiazolidin-2-thione], in the experiment with NiV-pVSV, the “IC50 (μM)” value is “Inactive” and the “antiviral activity in SAR discussion” value was “completely inactive”. In the case of `CC(=O)NCCCN1C(=O)/C(=C/c2ccc(-c3ccccc3)o2)SC1=S` [LJ-034, (Z)—N-(3-(4-Oxo-5-((5-phenylfuran-2-yl)methylene)-2-thioxothiazolidin-3-yl)propyl)acetamide], the “IC50 (μM)” value with NiV-pVSV was “Inactive”. The same measure, in the same setting: with `NCCCN1C(=O)/C(=C/c2ccc(-c3ccccc3)o2)SC1=S` [LJ-035, (Z)-3-(3-Aminopropyl)-5-((5-phenylfuran-2-yl)methylene)-4-oxothiazolidin-2-thione] the entry was “Inactive”. Turning to `CC(C)(C)OC(=O)NCCCN1C(=O)/C(=C/c2ccc(-c3ccccc3)o2)SC1=S` [LJ-036, (Z)-tert-Butyl 3-(4-oxo-5-((5-phenylfuran-2-yl)methylene)-2-thioxothiazolidine-3-yl)propyl carbamate], the IC50 in the experiment on NiV-pVSV (read-out: IC50) came out at 740 nM.

In the case of `CCCCCCCCCCCCCCCCCCCCCCO` [n-docosanol], in the experiment on enveloped viruses, the IC50 entry was “millimolar”. Take “(Z)-3-(2,4-Dioxo-5-((5-phenylfuran-2-yl)methylene)thioxothiazolidin-3-yl) propyl-5-(2-oxohexahydro-1H-thieno[3,4-d]imidazol-4-yl)pentanoate [LJ-037]”: the “IC50 (μM)” value in the experiment on NiV-pVSV is recorded as “Inactive”. For the molecule lysophosphotidylcholine [LPC], the “required molar concentration (total lipid content)” value in experiment [1] is at least 10%.
